In general, Ki refers to a dissociation constant, usually derived from enzyme kinetics or from competition with a known ligand. A word on the IC50: it is the concentration at which inhibition is half-maximal. As usually defined, the inhibition is the change of the read-out against control, counted positive when it falls. A word on the Km: it is the concentration of substrate that gives half-maximal velocity.

The values that follow come from paper PMC4977564, “Inhibition of Mycobacterium tuberculosis dihydrodipicolinate synthase by alpha-ketopimelic acid and its other structural analogues” (Scientific Reports, 2016).

Series [1] addresses T1, Mtb-rDapA (Mycobacterium tuberculosis, UniProt P9WP25). Kind of series: Fluorescence-based thermal shift assay. Type of series: binding. To be noted: ligand 0.2 mM to 1 mM; Mtb-rDapA Tm 84.8 °C. An excerpt: The fluorescence based thermal shift assay for screening of identified ligands, which is based on the principle that ligand binding alters thermal stability of protein. This method allows us to monitor the protein denaturation upon heating using fluorescence based dye (Sypro orange, Sigma, USA), which binds to hydrophobic part of proteins during protein denaturation and emits fluorescence at 580 nm[43]. We can monitor the changes in fluorescence and generate a thermal melting curve using real time PCR. The mid-point of the melting curve designated as the melting temperature Tm corresponding to 50% of protein being denatured.
The thermal shift assay was carried out in the LightCycler^R LC480 qPCR machine using 384 well PCR plates (Roche, USA). An assay mixture of 20 μl contained 20 μM Mtb-rDapA, 15 X Sypro Orange (Sigma), 50 mM sodium phosphate buffer pH 7.4 and ligand in the range 0.2 mM to 1 mM. The ligands and Mtb-rDapA were diluted in sodium phosphate buffer. The PCR plates were sealed with optical seal, mixed well and centrifuged after the assay mixture was added. […] The fluorescence intensity was measured by excitation at 465 nm and emission at 580 nm. Curve fitting, melting temperature calculation and report generation on the raw Fluorescence based thermal shift assay (FTS) data were performed using pre-installed analysis software provided with the instrument (Roche, USA)[44].

For series [2], the target named is T1, Mtb-rDapA. Description: LC-MS/MRM quantitation of THDP product of the coupled assay. It is filed as biochemical. As to conditions: MRM, 1 mM KPA (saturating concentration). As to the method: The activity of Mtb-rDapA and Mtb-rDapB in catalyzing formation of THDP was confirmed by LC/MS analysis. A reaction mixture contained 1 μg of Mtb-rDapA, 30 μg of Mtb-rDapB, 10 mM pyruvate, 1 mM ASA, 0.16 mM NADPH and 50 mM sodium phosphate buffer pH 7.4 run at 37 °C for 5 min using UV-Vis spectrophotometer for THDP formation. Mtb-rDapA and Mtb-rDapB were then inactivated at 55 °C for 5 min to preserve integrity of reaction products and reaction mixture passed through 10 kDa cutoff filter unit (Millipore, USA) to filter the proteins and centrifuged at 6800 × g. The flow-through containing reaction products was used in LC/MS analysis. In order to observe the effect of inhibitor on THDP formation we added α-KPA in the assay mixture. The sample was subjected to analysis on a LC/ESI-MS (Quattro Micro API, Waters) coupled to a UPLC inlet. The flow through was loaded onto an Acquity UPLC BEH shield RP18, […], 2.1 100 mm column comprising a mobile phase of buffer A (water, 0.1% formic acid) and buffer B (acetonitrile, 0.1% formic acid) at a flow rate of 0.2 ml min^−1. […] Quantitative analysis of THDP formation was carried out by assessment of peak area in multiple reactions monitoring (MRM) mode with precursor ion 172.3 of THDP and corresponding daughter ions 125.6 and 107.5 by using above mentioned LC-MS/MS parameters.

Series [3] deals with T1, Mtb-rDapA. Kind of series: Size exclusion chromatography of Mtb-rDapA oligomerization. On the procedure: Prior to gel filtration, the pre-packed Superdex 200 10/300 column (GE Healthcare) was pre-equilibrated with 50 mM Tris HCl pH 7.5, 150 mM NaCl and 10% glycerol. 25 μM Mtb-rDapA in 25 mM Tris/150 mM NaCl buffer was loaded in 500 μl volume. Multiple fractions of 1 ml volume were collected and each fraction runs on 12% SDS-PAGE gel electrophoresis. The ligand α-KPA in 1:5, 1:10 and 1:50 molar ratio of Mtb-rDapA was incubated with Mtb-rDapA and subjected to run as above. The chromatograms were collected by measuring absorption at 280 nm as a function of buffer volume at a flow rate of 0.3 ml/min. The column was calibrated by passing Apoferritin eluted at 10.5 ml, β-Amylase eluted at 12.5 ml, Alcohol dehydrogenase eluted at 13 ml, BSA eluted at 14.5 ml, carbonic anhydrase eluted at 16.9 ml, and cytochrome C eluted at 19 ml followed by a standard curve generation.
Background: Size exclusion chromatography separates by hydrodynamic size, large species first.

Series [4] has as its target T2, recombinant Mtb-DapA (Mtb-rDapA) (Mycobacterium tuberculosis, UniProt P9WP25).
In series [5] the target is T2, recombinant Mtb-DapA (Mtb-rDapA). Kind of series: biochemical.
The test system of series [6] is CC(=O)C(=O)O. Description: purified protein, by the assay type. To be noted: pH 7.4; 37.0 °C.

T2 sequence (P9WP25 whole entry, looked up): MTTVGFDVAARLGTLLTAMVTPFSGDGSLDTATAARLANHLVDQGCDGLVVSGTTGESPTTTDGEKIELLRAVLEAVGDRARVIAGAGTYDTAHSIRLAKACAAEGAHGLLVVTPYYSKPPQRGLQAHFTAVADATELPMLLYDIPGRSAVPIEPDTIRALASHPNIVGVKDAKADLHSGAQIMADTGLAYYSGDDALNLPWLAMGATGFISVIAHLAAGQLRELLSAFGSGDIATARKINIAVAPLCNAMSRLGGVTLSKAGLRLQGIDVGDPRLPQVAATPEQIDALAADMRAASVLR
T1 sequence (P9WP25 whole entry, looked up): as above

Consider `O=C(O)CCCCC(=O)C(=O)O` [compound 1, 2-oxoheptanedioic acid], for which the “Tm increase of Mtb-rDapA upon binding” value in series [1] is 1 °C. The “reduction of THDP product peak (SRM peak area / relative abundance)” value in series [2] (listed as KPA) is recorded as “up to 50%”; in series [2] (listed as α-KPA), 50%. In addition, the “effect on Mtb-rDapA oligomerization” value in series [3] (ratios of 1:5 and 1:10 of Mtb-rDapA to α-KPA) is on record as “the oligomerization was not affected”; in series [3] (α-KPA in 50-fold molar excess, 37 °C, 5 min) it was “did not obtain any peak corresponding to either the tetramer or the octamer”. Besides, the “fold increase of IC50, pre-incubation with pyruvate vs pre-incubation with α-KPA” value in series [4] is ~8 fold. Besides, in series [5], the Ki is 32.5 µM. The IC50 in series [5] (IC50) amounted to 160 µM; in series [5] (IC50, pyruvate 500 μM, ASA 400 μM), 21 µM; in series [5] (IC50 of α-KPA, pyruvate 0.17 mM, ASA 400 μM, 10 min from start), 21 µM; in series [5] (IC50 of α-KPA, pyruvate 0.17 mM, ASA 400 μM, 20 min from start), 21 µM; in series [5] (IC50 of α-KPA, pyruvate 0.17 mM, ASA 400 μM, 30 min from start) it was 21 µM; in series [5] (IC50 of α-KPA, pyruvate 0.17 mM, ASA 400 μM, 40 min from start), 31 µM. Moreover, the IC50 turned out to be 41 µM in series [5] (IC50 of α-KPA, pyruvate 0.17 mM, ASA 400 μM, 50 min from start); 51 µM in series [5] (IC50 of α-KPA, pyruvate 0.17 mM, ASA 400 μM, 60 min from start); 21 µM in series [5] (IC50 of α-KPA, pyruvate 0.3 mM, ASA 400 μM, 10 min from start); 21 µM in series [5] (IC50 of α-KPA, pyruvate 0.3 mM, ASA 400 μM, 20 min from start); 21 µM in series [5] (IC50 of α-KPA, pyruvate 0.3 mM, ASA 400 μM, 30 min from start); 31 µM in series [5] (IC50 of α-KPA, pyruvate 0.3 mM, ASA 400 μM, 40 min from start). Further, the IC50 in series [5] (IC50 of α-KPA, pyruvate 0.3 mM, ASA 400 μM, 50 min from start) turned out to be 41 µM; in series [5] (IC50 of α-KPA, pyruvate 0.3 mM, ASA 400 μM, 60 min from start) it was 51 µM; in series [5] (IC50 of α-KPA, pyruvate 1 mM, ASA 400 μM, 10 min from start), 21 µM; in series [5] (IC50 of α-KPA, pyruvate 1 mM, ASA 400 μM, 20 min from start), 21 µM; in series [5] (IC50 of α-KPA, pyruvate 1 mM, ASA 400 μM, 30 min from start) it was 21 µM; in series [5] (IC50 of α-KPA, pyruvate 1 mM, ASA 400 μM, 40 min from start), 31 µM. Also, the IC50 in series [5] (IC50 of α-KPA, pyruvate 1 mM, ASA 400 μM, 50 min from start) was 41 µM; in series [5] (IC50 of α-KPA, pyruvate 1 mM, ASA 400 μM, 60 min from start), 51 µM; in series [5] (IC50 of α-KPA, pyruvate 2 mM, ASA 400 μM, 10 min from start) it was 61 µM; in series [5] (IC50 of α-KPA, pyruvate 2 mM, ASA 400 μM, 20 min from start) it was 61 µM; in series [5] (IC50 of α-KPA, pyruvate 2 mM, ASA 400 μM, 30 min from start) it was 71 µM; in series [5] (IC50 of α-KPA, pyruvate 2 mM, ASA 400 μM, 40 min from start), 81 µM. Besides, the IC50 in series [5] (IC50 of α-KPA, pyruvate 2 mM, ASA 400 μM, 50 min from start) amounted to 91 µM; in series [5] (IC50 of α-KPA, pyruvate 2 mM, ASA 400 μM, 60 min from start) it was 101 µM. Besides, in series [5] (read-out: Maximal Inhibition (%)), the Emax is 88%. The inhibition at 400 µM in series [5] (read-out: maximal inhibition) stood at 77%.
As for “recombinant Mtb-DapA (Mtb-rDapA) (Mycobacterium tuberculosis H37Rv)”, in series [6], the Km came out at 148.8 µM.
